Measured values taken from ChEMBL document CHEMBL6109078, “Pyrylium derivatives as outer membrane permeabilizers against MDR gram-negative bacteria via multi-target mode of action” (Eur J Med Chem, 2025).
In brackets after ≈: the same amount, converted by molar mass.

Assays:
Type in all cases: functional
[1] = test system: Pseudomonas aeruginosa; test: Antibacterial activity Pseudomonas aeruginosa ATCC 27853 assessed as inhibition of bacterial growth by CLSI protocol based method
[2] = test system: Klebsiella pneumoniae; test: Antibacterial activity against Klebsiella pneumoniae ATCC 700603 assessed as inhibition of bacterial growth by CLSI protocol based method
[3] = test system: Klebsiella pneumoniae; test: Antibacterial activity against Klebsiella pneumoniae BAA ATCC 1706 assessed as inhibition of bacterial growth by CLSI protocol based method
[4] = test system: Escherichia coli; test: Antibacterial activity against Escherichia coli ATCC 25922 assessed as inhibition of bacterial growth by CLSI protocol based method
[5] = test system: Acinetobacter baumannii; test: Antibacterial activity against Acinetobacter baumannii ATCC 19606 assessed as inhibition of bacterial growth by CLSI protocol based method
[6] = test system: Pseudomonas aeruginosa; test: Antibacterial activity Pseudomonas aeruginosa PAO1 assessed as inhibition of bacterial growth by CLSI protocol based method
[7] = test system: Escherichia coli; test: Antibacterial activity against ESBL positive Escherichia coli ATCC 35218 assessed as inhibition of bacterial growth by CLSI protocol based method
[8] = test system: Acinetobacter baumannii; test: Antibacterial activity against multi-drug resistant Acinetobacter baumannii clinical isolate 1 assessed as inhibition of bacterial growth by CLSI protocol based method
[9] = test system: Acinetobacter baumannii; test: Antibacterial activity against multi-drug resistant Acinetobacter baumannii clinical isolate 2 assessed as inhibition of bacterial growth by CLSI protocol based method
[10] = test system: Acinetobacter baumannii; test: Antibacterial activity against multi-drug resistant Acinetobacter baumannii clinical isolate 4 assessed as inhibition of bacterial growth by CLSI protocol based method
[11] = test system: Acinetobacter baumannii; test: Antibacterial activity against multi-drug resistant Acinetobacter baumannii clinical isolate 14 assessed as inhibition of bacterial growth by CLSI protocol based method
[12] = test system: Acinetobacter baumannii; test: Antibacterial activity against multi-drug resistant Acinetobacter baumannii clinical isolate 10 assessed as inhibition of bacterial growth by CLSI protocol based method
[13] = test system: Acinetobacter baumannii; test: Antibacterial activity against multi-drug resistant Acinetobacter baumannii clinical isolate 43 assessed as inhibition of bacterial growth by CLSI protocol based method
[14] = test system: Acinetobacter baumannii; test: Antibacterial activity against multi-drug resistant Acinetobacter baumannii clinical isolate 5 assessed as inhibition of bacterial growth by CLSI protocol based method
[15] = test system: Acinetobacter baumannii; test: Antibacterial activity against multi-drug resistant Acinetobacter baumannii clinical isolate 51 assessed as inhibition of bacterial growth by CLSI protocol based method
[16] = test system: Escherichia coli; test: Antibacterial activity against multi-drug resistant Escherichia coli clinical isolate 1 assessed as inhibition of bacterial growth by CLSI protocol based method
[17] = test system: Escherichia coli; test: Antibacterial activity against Escherichia coli CG-4 expressing MCR-1 and NDM-1 assessed as inhibition of bacterial growth by CLSI protocol based method

SMILES | MIC [1] | MIC [2] | MIC [3] | MIC [4] | MIC [5] | MIC [6] | MIC [7] | MIC [8] | MIC [9] | MIC [10] | MIC [11] | MIC [12] | MIC [13] | MIC [14] | MIC [15] | MIC [16] | MIC [17]
CC(C)(C)c1cc(/C=C/c2ccc(N(c3ccccc3)c3ccccc3)cc2)cc(C(C)(C)C)[o+]1.O=S(=O)([O-])C(F)(F)F | > 100 µg/mL | > 100 µg/mL | > 100 µg/mL | > 100 µg/mL | > 100 µg/mL | > 100 µg/mL | > 100 µg/mL |  |  |  |  |  |  |  |  |  | 
CNC(C)[C@@H]1CC[C@@H](N)[C@@H](O[C@H]2[C@H](O)[C@@H](O[C@H]3OC[C@](C)(O)[C@H](NC)[C@H]3O)[C@H](N)C[C@@H]2N)O1.CN[C@@H]1[C@@H](O)[C@@H](O[C@@H]2[C@@H](O)[C@H](O[C@H]3O[C@H](C(C)N)CC[C@H]3N)[C@@H](N)C[C@H]2N)OC[C@]1(C)O.CN[C@@H]1[C@@H](O)[C@@H](O[C@@H]2[C@@H](O)[C@H](O[C@H]3O[C@H](CN)CC[C@H]3N)[C@@H](N)C[C@H]2N)OC[C@]1(C)O (stereo not given in full) | 0.78 µg/mL | 6.25 µg/mL | 1.56 µg/mL |  | 0.78 µg/mL | 0.2 µg/mL |  | > 100 µg/mL | > 100 µg/mL | > 100 µg/mL | > 100 µg/mL | > 100 µg/mL | > 100 µg/mL | > 100 µg/mL | > 100 µg/mL |  | 
CN(CCCl)c1ccc(/C=C/c2cc(C(C)(C)C)[o+]c(C(C)(C)C)c2)cc1.O=S(=O)([O-])C(F)(F)F | > 100 µg/mL | > 100 µg/mL | > 100 µg/mL | > 100 µg/mL | > 100 µg/mL | > 100 µg/mL | > 100 µg/mL |  |  |  |  |  |  |  |  |  | 
CC(C)(C)c1cc(NC(=O)/C=C/c2cc3ccccc3o2)cc(C(C)(C)C)c1 | > 100 µg/mL | > 100 µg/mL | > 100 µg/mL | > 100 µg/mL | > 100 µg/mL | > 100 µg/mL | > 100 µg/mL |  |  |  |  |  |  |  |  |  | 
CCOc1ccc(/C=C/c2cc(C(C)(C)C)[o+]c(C(C)(C)C)c2)cc1OC.O=S(=O)([O-])C(F)(F)F | > 100 µg/mL | > 100 µg/mL | > 100 µg/mL | > 100 µg/mL | > 100 µg/mL | > 100 µg/mL | > 100 µg/mL |  |  |  |  |  |  |  |  |  | 
CC(C)(C)c1cc(NC(=O)/C=C/C=C/c2ccccc2)cc(C(C)(C)C)c1 | > 100 µg/mL | > 100 µg/mL | > 100 µg/mL | > 100 µg/mL | > 100 µg/mL | > 100 µg/mL | > 100 µg/mL |  |  |  |  |  |  |  |  |  | 
CC(C)(C)c1cc(/C=C/c2ccc(N3CCOCC3)cc2)cc(C(C)(C)C)[o+]1.O=S(=O)([O-])C(F)(F)F | > 100 µg/mL | > 100 µg/mL | > 100 µg/mL | > 100 µg/mL | > 100 µg/mL | > 100 µg/mL | > 100 µg/mL |  |  |  |  |  |  |  |  |  | 
COc1ccc(/C=C/c2cc(C(C)(C)C)[o+]c(C(C)(C)C)c2)c(Cl)c1.O=S(=O)([O-])C(F)(F)F | > 100 µg/mL | > 100 µg/mL | > 100 µg/mL | > 100 µg/mL | > 100 µg/mL | > 100 µg/mL | > 100 µg/mL |  |  |  |  |  |  |  |  |  | 
CC(C)(C)c1cc(NC(=O)/C=C/C=C/c2ccccc2Cl)cc(C(C)(C)C)c1 | > 100 µg/mL | > 100 µg/mL | > 100 µg/mL | > 100 µg/mL | > 100 µg/mL | > 100 µg/mL | > 100 µg/mL |  |  |  |  |  |  |  |  |  | 
CC(C)Oc1ccc(/C=C/c2cc(C(C)(C)C)[o+]c(C(C)(C)C)c2)cc1.O=S(=O)([O-])C(F)(F)F | > 100 µg/mL | > 100 µg/mL | > 100 µg/mL | > 100 µg/mL | > 100 µg/mL | > 100 µg/mL | > 100 µg/mL |  |  |  |  |  |  |  |  |  | 
CC(=O)OCCN(CCOC(C)=O)c1ccc(/C=C/c2cc(C(C)(C)C)[o+]c(C(C)(C)C)c2)cc1.O=S(=O)([O-])C(F)(F)F | > 100 µg/mL | > 100 µg/mL | > 100 µg/mL | > 100 µg/mL | > 100 µg/mL | > 100 µg/mL | > 100 µg/mL |  |  |  |  |  |  |  |  |  | 
CC(C)(C)c1cc(/C=C/c2ccc(N(CCCl)CCCl)cc2)cc(C(C)(C)C)[o+]1.O=S(=O)([O-])C(F)(F)F | > 100 µg/mL | > 100 µg/mL | > 100 µg/mL | > 100 µg/mL | > 100 µg/mL | > 100 µg/mL | > 100 µg/mL |  |  |  |  |  |  |  |  |  | 
CCCN(CCC)c1ccc(/C=C/c2cc(C(C)(C)C)[o+]c(C(C)(C)C)c2)cc1.O=S(=O)([O-])C(F)(F)F | > 100 µg/mL | > 100 µg/mL | > 100 µg/mL | > 100 µg/mL | > 100 µg/mL | > 100 µg/mL | > 100 µg/mL |  |  |  |  |  |  |  |  |  | 
CC(C)(C)c1cc(/C=C/c2ccc(N3CCCCC3)cc2)cc(C(C)(C)C)[o+]1.O=S(=O)([O-])C(F)(F)F | > 100 µg/mL | > 100 µg/mL | > 100 µg/mL | > 100 µg/mL | 50 µg/mL | > 100 µg/mL | > 100 µg/mL |  |  |  |  |  |  |  |  |  | 
CCn1c2ccccc2c2cc(/C=C/c3cc(C(C)(C)C)[o+]c(C(C)(C)C)c3)ccc21.O=S(=O)([O-])C(F)(F)F | > 100 µg/mL | > 100 µg/mL | > 100 µg/mL | > 100 µg/mL | > 100 µg/mL | > 100 µg/mL | > 100 µg/mL |  |  |  |  |  |  |  |  |  | 
NCC[C@H](O)C(=O)N[C@@H]1C[C@H](N)[C@@H](O[C@H]2O[C@H](CN)[C@@H](O)[C@H](O)[C@H]2O)[C@H](O)[C@H]1O[C@H]1O[C@H](CO)[C@@H](O)[C@H](N)[C@H]1O [AMIKACIN] | 0.78 µg/mL (≈ 1.33 µM) | 0.78 µg/mL (≈ 1.33 µM) | 50 µg/mL (≈ 85.4 µM) | 6.25 µg/mL (≈ 10.7 µM) | 0.78 µg/mL (≈ 1.33 µM) | 0.2 µg/mL (≈ 0.342 µM) | 1.56 µg/mL (≈ 2.66 µM) | > 100 µg/mL | > 100 µg/mL | > 100 µg/mL | 50 µg/mL (≈ 85.4 µM) | > 100 µg/mL | > 100 µg/mL | > 100 µg/mL | > 100 µg/mL | > 100 µg/mL | 100 µg/mL (≈ 171 µM)
CC(C)(C)c1cc(/C=C/c2ccc3c(c2)CCO3)cc(C(C)(C)C)[o+]1.O=S(=O)([O-])C(F)(F)F | > 100 µg/mL | > 100 µg/mL | > 100 µg/mL | > 100 µg/mL | > 100 µg/mL | > 100 µg/mL | > 100 µg/mL |  |  |  |  |  |  |  |  |  | 
CCCCN(CCCC)c1ccc(/C=C/c2cc(C(C)(C)C)[o+]c(C(C)(C)C)c2)cc1.O=S(=O)([O-])C(F)(F)F | > 100 µg/mL | > 100 µg/mL | > 100 µg/mL | > 100 µg/mL | > 100 µg/mL | > 100 µg/mL | > 100 µg/mL |  |  |  |  |  |  |  |  |  | 
CN(CCC#N)c1ccc(/C=C/c2cc(C(C)(C)C)[o+]c(C(C)(C)C)c2)cc1.O=S(=O)([O-])C(F)(F)F | > 100 µg/mL | > 100 µg/mL | > 100 µg/mL | > 100 µg/mL | > 100 µg/mL | > 100 µg/mL | > 100 µg/mL |  |  |  |  |  |  |  |  |  | 
Cn1c(=O)n(C)c2cc(/C=C/c3cc(C(C)(C)C)[o+]c(C(C)(C)C)c3)ccc21.O=S(=O)([O-])C(F)(F)F | > 100 µg/mL | > 100 µg/mL | > 100 µg/mL | > 100 µg/mL | > 100 µg/mL | > 100 µg/mL | > 100 µg/mL |  |  |  |  |  |  |  |  |  | 
CCN(CCCl)c1ccc(/C=C/c2cc(C(C)(C)C)[o+]c(C(C)(C)C)c2)cc1.O=S(=O)([O-])C(F)(F)F | > 100 µg/mL | > 100 µg/mL | > 100 µg/mL | > 100 µg/mL | > 100 µg/mL | > 100 µg/mL | > 100 µg/mL |  |  |  |  |  |  |  |  |  | 
CN(C)c1ccc(/C=C/C=C/c2cc(C(C)(C)C)[o+]c(C(C)(C)C)c2)cc1.O=S(=O)([O-])C(F)(F)F | > 100 µg/mL | > 100 µg/mL | > 100 µg/mL | > 100 µg/mL | > 100 µg/mL | > 100 µg/mL | > 100 µg/mL |  |  |  |  |  |  |  |  |  | 
